Results on three compounds are retold here after PMC10182956 (Archives of Toxicology, 2023).

Where two headings read alike, the source gives them in different places.

Broadly, the EC50 is the concentration needed to bring the measured effect to its halfway point. In general, LogP refers to the decadic logarithm of the partition coefficient of the neutral form, usually between octanol and water.

In series [1] the test system is HepaRG cells. Nature of the series: High-content imaging assay: lipid accumulation (Bodipy lipid droplets). The class given is cell-based. The following applies: HepaRG 24 h; for Lipid accumulation response (in words): population level, threshold ± 2 standard deviations of the response at the two lowest concentrations; for EC (BMC, 1 SD from control): Homo sapiens, lipid accumulation, Supplementary table 3, read-out: LA: Benchmark concentration (µM) per imaging endpoint calculated with BMDS software.

A short description of series [2]: IVIVE reverse dosimetry: oral equivalent dose (OED) from BMC. To be noted: IVIVE derived median over all positive imaging endpoints; rat simulation (R script); Table 2. The text has this:
(§1) Human data were used except where otherwise stated. […]
mc_OED_WY14643_LD <- calc_mc_oral_equiv(40.98, chem.cas="50892-23-4", model = "3compartmentss",species="Rat", return.samples = T, samples=1000, httkpop = T) mc_OED_WY14643_MD <- calc_mc_oral_equiv(38.1, chem.cas="50892-23-4", model = "3compartmentss",species="Rat", return.samples = T, samples=1000, httkpop = T) mc_OED_WY14643_NM <- calc_mc_oral_equiv(386.28, chem.cas="50892-23-4", model = "3compartmentss",species="Rat", return.samples = T, samples=1000, httkpop = T)

Series [3] can be described thus: Published in vivo pharmacokinetics (Css, clearance). To be noted: for In vivo Css (µM): calculated with Css = (Dose*F)/(Cl*dosing interval) or k0/Cl from published pharmacokinetic parameters, ref Cunningham 2007, Adedayo Adedoyin, Leon Arons 1993b; for hepatocyte CLint: hepatocytes (back-calculated, no incubation), in vitro intrinsic hepatic clearance calculated from in vivo clearance with formula 3, read-out: Calculated Clint (ul/min/10^6 cells). An excerpt:
For the model evaluation, Css of selected reference chemicals were predicted using formula 1 with the same dose rate from the in vivo Css measurements. For chemicals with no in vitro intrinsic hepatic clearance and fraction unbound values available in the database included in the httk package, in silico predictions from (Sipes et al. [2017]) were loaded using load_sipes2017(). […]. The formula to calculate Clint was derived from the function calc_hepatic_clearance within the httk package. Predicted Css values were then compared to published in vivo Css values. If there was no published in vivo Css available, Css was then calculated based on published in vivo pharmacokinetic parameters using the following formula (Supplementary table 3)4 Css(mg/L)=(Dose×F)/(Cl×dosinginterval)
Supplementary table 3. Comparison of benchmark concentration and predicted Css with published pharmacokinetic values. Where indicated, in vivo derived Css values were calculated using following formula: Css = (Dose*F)/(Cl*dosing interval) or Css = k0/Cl with F = bioavailability, Cl = clearance, k0 = infusion rate and Css = steady state concentration.

The subject of series [4] is HepaRG cells. To be noted: HepaRG 24 h, population level; threshold ± 2 standard deviations of the response at the two lowest concentrations.
The subject of series [5] is HepaRG cells. The following applies: HepaRG 24 h; for Number of apoptotic cells (nuclear morphology) response (in words): population level, threshold ± 2 standard deviations of the response at the two lowest concentrations.
Description: (§2) Cellular responses were quantified using a high-content imaging approach (Fig. 1). Based on cell viability assessment, concentrations below the EC50 level were tested in the high-content imaging assay. After 24 h chemical exposure, live cells were incubated with CellROX, which reflects hydroxyl radi [...
For series [6], the system named is HepaRG cells. Nature of the series: cells. The following applies: Homo sapiens, 24 h, read-out: MMP: Benchmark concentration (µM) per imaging endpoint calculated with BMDS software.
Series [7] relates to HepaRG cells. The experiment in a line: cells. To be noted: Homo sapiens, 24 h, read-out: NM: Benchmark concentration (µM) per imaging endpoint calculated with BMDS software.
Description: as §2
The test system of series [8] is HepaRG cells. The experiment in a line: Cell viability assessment (WST-1 assay). The following applies: Homo sapiens, 24 h exposure, reference chemicals, 95% CI in brackets, read-out: EC50 µM (95% CI) from cell viability (WST-1). The class given is cell-based, human. An excerpt: Undifferentiated HepaRG cells were purchased from Biopredic international (Saint Grégoire, France). HepaRG cells have unlimited growth capacity and phenotypic stability, stable enzymatic activities over 4 weeks of cultivation, and similar metabolic function to primary human hepatocytes, and also avoid limitations of primary cells such as donor variability and phenotypic instability (Aninat et al. [2006]; Guillouzo et al. [2007]; Lambert et al. [2009]; Lübberstedt et al. [2011]; Andersson et al. [2012]). The line contains two cell types, hepatocyte-like and cholangiocyte-like cells (Parent et al. [2004]), which allows for elucidation of cell-specific toxicity (Jossé et al. [2008]). Cells were seeded at a density of approximately 27′000 cells/cm^2 into a 150 × 25 mm petri dish and were cultured for 2 weeks in William’s E medium (cat. nr.: 32,551,020, ThermoFisher Scientific, Massachusetts, USA) supplemented with 2 mM glutamine, 10% (v/v) fetal bovine serum (FBS) good forte (cat. nr.: P40-47,500, PAN-Biotech, Aidenbach, Germany), 100 U/ml penicillin and 100 µg/ml streptomycin (cat. nr.: 15,140,122, ThermoFisher Scientific, Massachusetts, USA), 5 µg/ml Gibco recombinant AOF insulin (cat. nr.: A11382II, ThermoFisher Scientific, Massachusetts, USA) and 50 µM hydrocortisone hemisuccinate (cat. nr.: H4881, Sigma-Aldrich, St. Louis, USA) at 37 °C and 5% CO2. Differentiation was induced by culturing the cells for another 2 weeks in the above mentioned medium supplemented with 1.7% DMSO. After 4 weeks in culture, differentiated HepaRG cells were seeded at a high density of approximately 227′000 cells/cm^2 (72,000 cells/well with 100 µl per well) into black 96-well plates with a clear bottom (cat.nr.: 3603, Corning, New York, USA) and maintained for 10 days. After 10 days, cells were first adapted to treatment medium (culture medium containing 0.5% DMSO and 2% FBS) for 48 h and then used for cell viability and high-content imaging analysis.
Cell viability was analyzed using the WST-1 assay which is based on the measurement of mitochondrial dehydrogenase activity (cat. nr: ab155902, Abcam, Cambridge, UK). HepaRG cells were exposed to chemicals at defined concentrations for 24 h. Triton X-100 (0.01%) was a positive control. One hour before the end of incubation period, 10 µl of WST-1 reagent was added to each well, quickly mixed by shaking the plate, and returned to the cell culture incubator (37 °C, 5% CO2). After 1 h, absorbance was measured (450 nm, reference wavelength 620 nm) using a plate reader (Infinite M200 Pro, Tecan group, Männerdorf, Switzerland). Absorbance was then subtracted from the reference wavelength, corrected for background by subtracting values measured without cells, and then normalized to the solvent control, which was set to 100%. Dose–response data were fitted using drc package (Version 3.0.1) (Ritz et al. [2015]) in R 3.6.1. Data were from at least 3 independent experiments with 6 technical replicates per condition.
(Tetrazolium dyes change colour on reduction, which living cells bring about.)

Series [9] in a line: IVIVE reverse dosimetry: oral equivalent dose (OED) from BMC. The following applies: IVIVE derived median over all positive imaging endpoints; rabbit simulation (R script); Table 2.
Description: as §1
mc_OED_MEN_LD <- calc_mc_oral_equiv(2.835, chem.cas="58-27-5", model = "3compartmentss",species = "Rabbit",return.samples = T, samples=1000, httkpop = T) mc_OED_MEN_NM <- calc_mc_oral_equiv(8.1, chem.cas="58-27-5", model = "3compartmentss",species = "Rabbit", return.samples = T, samples=1000, httkpop = T) quantile_OED_MEN_LD <- quantile(mc_OED_MEN_LD, c(0.05, 0.5, 0.95), na.rm = TRUE) quantile_OED_MEN_NM <- quantile(mc_OED_MEN_NM, c(0.05, 0.5, 0.95), na.rm = TRUE)

In series [10] the test system is HepaRG cells. The following applies: HepaRG 24 h, population level; threshold ± 2 standard deviations of the response at the two lowest concentrations. The source holds these as a separate data set.
For series [11] the following is noted: cited from earlier work.
Details of series [12]: method as in Literature column of Supplementary table 4. To be noted: value added to httk database; ref Supplementary table 4; cited from earlier work.
On the set-up of series [13]: method as in Hu et al. 1996. The following applies: fraction unbound plasma; rabbit; ref Hu et al. 1996; cited from earlier work.
Details of series [14]: method as in Adedayo Adedoyin, Leon Arons 1993a. To be noted: rat; plasma clearance; ref Adedayo Adedoyin, Leon Arons 1993a; cited from earlier work.
On the set-up of series [15]: method as in Adedayo Adedoyin, Leon Arons 1993a. To be noted: fraction unbound plasma; rat; ref Adedayo Adedoyin, Leon Arons 1993a; cited from earlier work.

Turning to `Cc1cccc(Nc2cc(Cl)nc(SCC(=O)O)n2)c1C` [WY14643], the “Lipid accumulation response (in words)” value is “dose-dependently increased and exceeded the threshold” in [1]; “having the potential to induce lipid accumulation” in series [1] (listed as WY-14693). Moreover, the EC (BMC, 1 SD from control) is 41 µM in series [1] and 38.1 µM in series [6]. Besides, in [2], the “OED” value is 1.7 mg/kg/day. In addition, the “In vivo Css (µM)” value in [3] (rat) was 2.5^3,5 µM. For the same compound, in [4], the “Mitochondrial membrane potential response (in words)” value is “MMP hyperpolarization”. Besides, the “Number of apoptotic cells (nuclear morphology) response (in words)” value in series [5] is on record as “induced apoptosis”. For the same compound, in series [7], the EC (BMC) is 386 µM.

`CC1=CC(=O)c2ccccc2C1=O` [menadione]: the EC50 in series [8] was 59.1 µM. In series [1], the “Lipid accumulation response (in words)” value is “increased in a dose-dependent manner” and the EC (BMC, 1 SD from control) was 2.8 µM. The “OED” value in series [9] was 55.4 mg/kg/day. Besides, in [3] (rabbit), the hepatocyte CLint is 58.3 µL/min/1e6 cells. Moreover, the “Oxidative stress response (in words)” value in [10] was “unexpected negative outcomes”. In series [5], the “Concentration at which increase of number of apoptotic cells (nuclear morphology) exceeded the threshold” value is on record as 25 µM. In addition, the EC (BMC) in [7] is 8.1 µM. Also, the “In vivo Css (µM)” value in series [11] (in rabbits, reference cell empty) was 12.6^4 µM. Besides, the “In vivo clearance” value in [11] (rabbit, ref Hu et al. 1996) is listed as 49.32 L/h. Also, the log partition coefficient (LogP) in series [12] is listed as 2.2. In addition, the Fup in [13] is reported as 0.2.

Regarding `O=c1cc(-c2ccccc2)oc2ccc3ccccc3c12` [β-naphthoflavone], in series [1], the “Lipid accumulation response (in words)” value is given as “did not give rise to lipid accumulation”. Further, the “Lipid accumulation response (in words)” value in series [1] (listed as BNF) is reported as “not”. In [3] (rat), the hepatocyte CLint is 23.4 µL/min/1e6 cells and the “In vivo Css (µM)” value is 2.3^3 µM. The “Mitochondrial membrane potential response (in words)” value in series [4] is “none of the hallmarks were induced”. In addition, the “Oxidative stress response (in words)” value in series [10] is “none of the hallmarks were induced”. The “Number of apoptotic cells (nuclear morphology) response (in words)” value in series [5] is reported as “none of the hallmarks were induced”. Besides, the “In vivo clearance (L/h)” value in series [14] is given as 1.3 (plasma clearance) L/h. In addition, the LogP in series [12] was 4.4. Besides, in series [15], the Fup is recorded as 0.04.
